{
  "source": "patent US10736872B1",
  "about": "“Pharmaceutical mixture to treat statin induced vascular calcification” (priority 2019, dated 2020)",
  "type_in_all_cases": "cell-based",
  "key": {"[1]": {"test_system": "human aortic smooth muscle cells (AoSMC)", "experiment": "Alkaline phosphatase activity assay in AoSMC", "conditions": "for decrease in ALP activity: 5 mM b-GP, 25 mcM forskolin; for increase of ALP activity / increase of ALP activity compared to control / increase in ALP activity compared to control: 1 mcM statin; for increase of ALP activity compared to control / increase in ALP activity compared to control: four days; for increase of ALP activity compared to control: FIG. 4A; for increase in ALP activity compared to control: pro-calcification condition (5 mM b-GP and 25 mcM forskolin), FIG. 4B", "protocol": "Alkaline phosphatase activity assay in AoSMC: AoSMC were plated in 96 well plates and grown to confluent layer. […] Cells were washed with phosphate buffered saline (PBS) and supplemented with 50 mcl/well 25 mcg/ml 4-MUP (fluorescent ALP substrate, Sigma) in alkaline buffer (Sigma)/1% Triton X100 for 1 h at room temperature. Fluorescence was measured at 360/450 nm.\nStatistical analysis: Results in figures are means±standard deviation (SD) from three or more repetitions from the most representative of at least two independent experiments. Differences between samples were estimated with a two-tailed Student's t-test using Excel software (Microsoft) and accepted as significant at p levels less than 0.05. The results in FIGS. 4A and 4B and FIGS. 5A and 5B are expressed as percentage of supplemented controls and presented as means±SD from six or more repetitions from the most representative of at least two independent experiments.\nThe calcification process of AoSMC was evaluated by the activity of cellular alkaline phosphatase (ALP). The study assessed the effects of Mixture 1 (micronutrient combination containing ascorbate) and ascorbate individually under standard (5% FBS/DMEM) and pro-calcification conditions (5% FBS/DMEM supplemented with 5 mM beta-glycerophosphate (b-GP) and 25 mcM forskolin—FIG. 4B)."}, "[2]": {"test_system": "human aortic smooth muscle cells (AoSMC)", "experiment": "Calcium accumulation in extracellular matrix of AoSMC", "protocol": "Cell viability was monitored with MTT assay. […] Plant-derived micronutrients suppress monocyte adhesion to cultured human aortic endothelial cell layer by modulating its extracellular matrix composition. J Cardiovasc Pharmacol 2008; 52:55-65. After four washes with PBS, ECM layers were solubilized by incubation in 0.6N HCl for 48 hours at 37° C. Calcium content in solubilized samples was measured with TECO Ca assay according to the manufacturer's protocol. […] The calcification process of AoSMC was evaluated by the activity of cellular alkaline phosphatase and calcium accumulation in the cell-produced extracellular matrix (FIG. 1)."}, "human aortic SMC": {"test_system": "human aortic SMC", "experiment": "Expression of osteoblast markers in AoSMC (immunoassay)", "conditions": "100 mcM ascorbic acid, 5 mM beta-glycerophosphate and 25 mcM forskolin, 4 weeks, FIG. 3A"}, "[3]": {"test_system": "human dermal fibroblasts (DF)", "experiment": "Expression of osteoblast markers in human dermal fibroblasts (immunoassay)", "conditions": "100 mcM ascorbic acid, 5 mM beta-glycerophosphate and 25 mcM forskolin, 4 weeks, FIG. 3B"}, "[4]": {"conditions": "300 mcM ascorbate, regular growth medium, FIG. 1"}, "[5]": {"conditions": "100 mcM ascorbate in the presence of simvastatin, without forskolin, FIG. 2A"}, "[6]": {"conditions": "plain 5% FBS/DMEM, five days, FIG. 5A"}, "[7]": {"conditions": "pro-calcification conditions (5 mM b-GP, 25 mcM forskolin), five days, FIG. 5B"}},
  "data": [
    {"smiles": "O=C1O[C@H]([C@@H](O)CO)C(O)=C1O", "note": "[ascorbic acid, L-ascorbic acid]", "values": [
      {"measurement": "ALP activity after addition of ascorbate", "setting": "[1]; 300 mcM ascorbate in the presence of 1 mcM simvastatin, plain 5% FBS/DMEM, five days, FIG. 5A", "value": "decreased to control level"},
      {"measurement": "decrease in ALP activity", "setting": "[1]; 300 mcM ascorbate, mevastatin containing samples, five days, FIG. 5B", "value": 37, "unit": "%"},
      {"measurement": "decrease in ALP activity", "setting": "[1]; 300 mcM ascorbate, pravastatin containing samples, five days, FIG. 5B", "value": 24, "unit": "%"},
      {"measurement": "decrease of alkaline phosphatase activity", "setting": "[1]; [4]", "value": 80, "unit": "%"},
      {"measurement": "decrease in ALP activity", "setting": "[1]; 300 mcM ascorbate, simvastatin containing samples, five days, FIG. 5B", "value": 36, "unit": "%"},
      {"measurement": "decrease in ALP activity", "setting": "[1]; 300 mcM ascorbic acid in the absence of statins, five days, FIG. 5B", "value": 29, "unit": "%"},
      {"measurement": "decrease of statin-stimulated ALP activity", "setting": "[1]; 300 mcM ascorbic acid in the presence of 1 mcM mevastatin, plain 5% FBS/DMEM, five days, FIG. 5A", "value": 29, "unit": "%"},
      {"measurement": "decrease of statin-stimulated ALP activity", "setting": "[1]; 300 mcM ascorbic acid in the presence of 1 mcM pravastatin, plain 5% FBS/DMEM, five days, FIG. 5A", "value": 30, "unit": "%"},
      {"measurement": "decrease of alkaline phosphatase activity", "setting": "[1]; 300 mcM ascorbic acid, no statin, plain 5% FBS/DMEM, five days, FIG. 5A", "value": "about 43%"},
      {"measurement": "decrease of calcium accumulation", "setting": "[2]; 100 mcM ascorbate added in the presence of mevastatin, with forskolin, FIG. 2B, to below control values", "value": 19, "unit": "%"},
      {"measurement": "accumulated calcium", "setting": "[2]; [5]", "value": 0.2, "unit": "mcg/well"},
      {"measurement": "decrease of accumulated calcium", "setting": "[2]; [5]", "value": 54, "unit": "%"},
      {"measurement": "decrease of extracellular Ca accumulation by AoSMC", "setting": "[2]; [4]", "value": 20, "unit": "%"},
      {"measurement": "expression of all tested osteogenic markers", "setting": "human aortic SMC", "value": "significantly reduced"},
      {"measurement": "expression of all tested osteogenic markers", "setting": "[3]", "value": "significantly reduced"}
    ]},
    {"smiles": "CC[C@H](C)C(=O)O[C@H]1CCC=C2C=C[C@H](C)[C@H](CC[C@@H]3C[C@@H](O)CC(=O)O3)[C@H]21", "note": "[mevastatin]", "values": [
      {"measurement": "increase of ALP activity", "setting": "[1]; [6]", "value": 61, "unit": "%"},
      {"measurement": "increase of ALP activity compared to control", "setting": "[1]; plain 5% FBS/DMEM", "value": 25, "unit": "%"},
      {"measurement": "increase in ALP activity compared to control", "setting": "[1]", "value": 39, "unit": "%"},
      {"measurement": "increase of ALP activity", "setting": "[1]; [7]", "value": 41, "unit": "%"},
      {"measurement": "calcium accumulation", "setting": "[2]; 1 mM mevastatin, with 25 mcM forskolin, FIG. 2B, control 1.35 mcg/well", "value": 1.8, "unit": "mcg/well"}
    ]},
    {"smiles": "CC[C@H](C)C(=O)O[C@H]1C[C@H](O)C=C2C=C[C@H](C)[C@H](CC[C@@H](O)C[C@@H](O)CC(=O)O)[C@H]21", "note": "[pravastatin]", "values": [
      {"measurement": "increase of ALP activity", "setting": "[1]; [6]", "value": 60, "unit": "%"},
      {"measurement": "increase of ALP activity compared to control", "setting": "[1]; plain 5% FBS/DMEM", "value": 39, "unit": "%"},
      {"measurement": "increase in ALP activity compared to control", "setting": "[1]", "value": 25, "unit": "%"},
      {"measurement": "increase of ALP activity", "setting": "[1]; [7]", "value": 25, "unit": "%"}
    ]},
    {"smiles": "CCC(C)(C)C(=O)O[C@H]1C[C@@H](C)C=C2C=C[C@H](C)[C@H](CC[C@@H]3C[C@@H](O)CC(=O)O3)[C@H]21", "note": "[simvastatin]", "values": [
      {"measurement": "increase of ALP activity", "setting": "[1]; [6]", "value": 57, "unit": "%"},
      {"measurement": "increase in ALP activity compared to control", "setting": "[1]", "value": 22, "unit": "%"},
      {"measurement": "increase of ALP activity", "setting": "[1]; [7]", "value": 30, "unit": "%"},
      {"measurement": "increase of calcium accumulation in AoSMC layers", "setting": "[2]; simvastatin, without forskolin, FIG. 2A", "value": 23, "unit": "%"}
    ]}
  ]
}
